The values below come from paper PMC7970121, “Combination With Tomatidine Improves the Potency of Posaconazole Against Trypanosoma cruzi” (Frontiers in Cellular and Infection Microbiology, 2021).

Data set [1] concerns Trypanosoma cruzi epimastigotes (STIB 980 strain). Description: Activity on T. cruzi epimastigotes (resazurin, 72 h). The data set is classed as cell-based. The settings on record: STIB980, STIB 980 strain, 72 h; for EC50: n = 3, read-out: Epimastigotes (mean ± SD) EC50; for EC90: n = 3, read-out: Epimastigotes (mean ± SD) EC90. Here is the method:
(§1) L6 cells derived from rat skeletal myoblast (ATCC CRL-1458) were used as host cells for T. cruzi using trypomastigotes of Tulahuen C2C4 strain (DTU VI) expressing the β-galactosidase gene (LacZ) ([Buckner et al., 1996]). The cultures were sustained in RPMI-1640 supplemented with 10% inactivated fetal bovine serum (FBS) and […] at 5% CO2 and 37°C. Epimastigote T. cruzi (STIB 980 strain, DTU TcI) were cultivated at 28°C in liver infusion tryptose (LIT) medium supplemented with hemin (2 μg/ml) and 10% FBS and were used in log phase of growth. Bloodstream trypomastigotes (Y strain, DTU II) were isolated from Swiss Webster mice infected at the peak of parasitemia (≥ 2.5 × 10^6/ml), as reported ([Meirelles et al., 1986]).
Epimastigotes (10^7 parasites/ml) were incubated for 72 h at 28°C with serially diluted compound concentrations (eleven 1:3 dilutions) in supplemented LIT medium. Parasite viability and motility were evaluated by direct observation by light microscopy and fluorometric assays performed with resazurin (12.5 mg resazurin dissolved in 100 ml distilled water). After 2–4 h of incubation with resazurin solution, plates were read in Spectramax Gemini XS microplate fluorometer (Molecular Devices Cooperation, USA) using wavelengths of 536 nm (excitation) and 588 nm (emission) ([Räz et al., 1997]). Growth was expressed as percentage of the values of solvent-treated controls. The graphics program Softmax Pro (Molecular Devices) was used to construct dose–response curves and calculate EC50 (half maximal inhibitory concentration) values. Bz was used as reference drug.

For data set [2], the system named is Trypanosoma cruzi intracellular amastigotes (Tulahuen strain in rat L6 myoblasts). Description: Activity on T. cruzi intracellular amastigotes in L6 cells (LacZ/CPRG, 96 h). The format is cell-based. The following applies: for SI (Selectivity Index): EC50 on mammalian L6 cells versus EC50 on intracellular amastigotes; for EC50 / EC90: Tulahuen strain in rat L6 myoblasts, 96 h, n = 3; for EC50: read-out: Amastigotes (mean ± SD) EC50; for EC90: read-out: Amastigotes (mean ± SD) EC90. Here is the method: as §1
Rat skeletal myoblasts (L6 cell lines) were seeded in 96-well plates (10^4 cells/well) in 100 μl RPMI 1640 medium supplemented with 10% fetal bovine serum (FBS) and 2 mM L-glutamine. The medium was removed after 24 h incubation and replaced by 100 μl of fresh medium containing 10^5 LacZ trypomastigotes (Tulahuen DTU VI). After 48 h, the medium was again removed and replaced with or without a serial of compound concentrations (eleven three-fold dilution steps). After 96 h of compound exposure, CPRG/Nonidet (50 μl) substrate was added and the reading performed after 2–6 h at 540 nm in Versamax microplate reader (Molecular Devices Cooperation, USA). Growth was expressed as percentage of the values of solvent-treated controls. The graphics program Softmax Pro (Molecular Devices) was used to construct dose–response curves and calculate EC50 values. Bz was used as reference drug.

The next data set deals with T. cruzi (Y strain). Kind of data set: Mouse model of acute T. cruzi infection: parasitemia and mortality. The data set is classed as in vivo, Trypanosoma cruzi. As to the method: Male Swiss Webster mice (18–23 g) were obtained from the Instituto de Ciência e Tecnologia em Biomodelos (ICTB/Fiocruz) (Rio de Janeiro, Rio de Janeiro, Brazil). Five mice were housed per cage, kept in a conventional room at 20–24°C under 12 h/12 h light/dark cycle. Sterilized water and chow were provided ad libitum. The animals were acclimated for 7 days before being used in the different assays. All procedures were done following Biosafety Guidelines in compliance with the Fiocruz and all animal procedure approved by the Committee of Ethics for the Use of Animals (CEUA L-38/17).
Male mice (n = 5 per group) were infected i.p. with 10^4 bloodstream trypomastigotes of T. cruzi (Y strain). Only mice with positive parasitemia at day 5 post infection (dpi) were included in the studies. […] Uninfected and T. cruzi-infected mice treated only with vehicle (aqueous solution of 0.5% carboxymethylcellulose) were age-matched and housed under identical conditions and used as controls ([Simões-Silva et al., 2017]). All compound formulations were freshly prepared before every administration.
All animals were individually checked for circulating blood parasitemia by counting the number of parasites in 5 µl of blood taken from the tail vein and investigated under the microscope ([Brener, 1962]). Parasitemia was checked till 30 dpi, while mortality was checked daily up to 30 days after the administration of the last dose. Mortality was given as percentage of cumulative mortality (CM) ([Simões-Silva et al., 2017]).

Data set [3] is described as follows: Cytotoxicity against L6 cells (resazurin, 72 h). The data set is classed as cell-based, rat. As to the method:
Rat skeletal myoblasts (L6 cell lines) were seeded in 96-well plates (4 × 10^4 cells/well) in 100 μl RPMI 1640 medium supplemented with 10% fetal bovine serum (FBS) and 2 mM L-glutamine. After 24 h incubation the medium was replaced with 100 μl of fresh medium with or without a serial dilution of compound concentrations (eleven three-fold dilution steps). After 72 h of compound exposure, fluorescent dye resazurin (10 μl, 12.5 mg resazurin dissolved in 100 ml water) was added for 2 h and the readings performed at Spectramax Gemini XS microplate fluorometer (Molecular Devices Cooperation, USA), with excitation wavelength of 536 nm and an emission wavelength of 588 nm. Growth was expressed as percentage of the values of solvent-treated controls. The graphics program Softmax Pro (Molecular Devices) was used to construct dose–response curves and calculate EC50 values. Podophyllotoxin (a microtubule destabilizing agent) was used as positive control.

Data set [4] is described as follows: Toxicity in female mice after p.o. administration. The data set is classed as in vivo. The settings on record: up to 200 mpk (data not shown).
The test system of data set [5] is T. cruzi epimastigote cultures. On the set-up: method as in Chataing et al., 1998. The settings on record: after four days of incubation; ref Chataing et al., 1998; read-out: Concentration inhibiting growth of epimastigote cultures to 50%; cited from earlier work.
Setting [6] is: Trypanosoma cruzi, TULAHUEN, L6, 96 h.
Where [7] appears, read: TH alone, all tested doses (up to 5 mpk) p.o., 10 days, mice.

Entries after “also recorded” stand apart in the source; their conditions may differ. Counter-ions that a name gives are not always drawn. Like-named read-outs stand apart in the source and are kept apart here.

Turning to `CC[C@@H]([C@H](C)O)n1ncn(-c2ccc(N3CCN(c4ccc(OC[C@@H]5CO[C@@](Cn6cncn6)(c6ccc(F)cc6F)C5)cc4)CC3)cc2)c1=O` [Posaconazole], the EC50 was greater than 14.2 µM in data set [1] and 2 ± 1 nM in data set [2] (setting [6]). Moreover, the EC90 in data set [1] is greater than 14.2 µM; in data set [2] (Trypanosoma cruzi) it was 16 ± 5 nM. Also, the “SI (Selectivity Index)” value in data set [2] is reported as greater than 700. Further, the “Decrease of the parasitemia peak” value in the data set on T. cruzi (Y strain) (Posa 1.25 mpk (suboptimal dose) p.o., 10 days (5-14 dpi), mice) is “about 80%”. In the data set with T. cruzi (Y strain) (Posa 1.25 mpk p.o., 10 days (5-14 dpi)), this molecule gave an Animal survival of 20%. For the same molecule, the Survival of mice with T. cruzi (Y strain) (Posa 10 mpk p.o., 10 days (5-14 dpi)) was determined as 40%. Also, the “Effect on parasitemia on the peak (8 dpi)” value with T. cruzi (Y strain) (Posa 10 mpk p.o., 10 days (5-14 dpi), mice) is listed as “suppressed parasitemia on the peak”. Further, in data set [3] (rat), the EC50 at 72 h is greater than 1.42 µM. Moreover, the Signs of toxicity result in data set [4] is on record as “did not show any signs of toxicity”.

On to `C[C@H]1CC[C@]2(NC1)O[C@H]1C[C@H]3[C@@H]4CC[C@H]5C[C@@H](O)CC[C@]5(C)[C@H]4CC[C@]3(C)[C@H]1[C@@H]2C` [Tomatidine (hydrochloride), Tomatidine], for which the EC50 in data set [1] is 192 ± 8.1 µM; in data set [2] (setting [6]), no more than 1000 nM; in data set [2] it was 780 ± 200 nM; in data set [5], 5.7 µM. The EC90 in data set [1] is greater than 221 µM; in data set [2] (Trypanosoma cruzi) it was 1800 ± 200 nM. In data set [2], the “SI (Selectivity Index)” value came out at 115. Further, in the data set with T. cruzi (Y strain) (setting [7]), the “Maximum reduction in blood parasitemia on the peak” value is listed as no more than 28%. The “Protection against mortality induced by the infection” value in the data set on T. cruzi (Y strain) (setting [7]) is reported as “all animals died by 20 dpi”. In the data set with T. cruzi (Y strain) (TH alone, doses 0.5 to 5 mg/kg, acute mouse model, listed as TH), the “Antiparasitic activity in vivo” value is “lack of antiparasitic activity; also recorded: did not present antiparasitic activity”. Further, the EC50 at 72 h in data set [3] (rat L6 myoblasts, 72 h, n = 3, read-out: L6 cells (mean ± SD) EC50) was found to be 89.5 ± 26.7 µM. In addition, the Signs of toxicity entry in data set [4] was “did not show any signs of toxicity”.
